Measurements published in patent US4464373A, “4,5-Dihydroimidazo-[1,2-a]quinoxaline-2-carboxylic acids and their derivatives with antiallergic activity” (Roussel Uclaf, priority 1982, dated 1984).

Test system: passive cutaneous reaction mediated by Ig G antibodies
Test: Passive cutaneous anaphylaxis of the rat (PCR), Ig G mediated, oral
Format: in vivo
Conditions: male Wistar rats, ovalbumin challenge
Procedure: Passive cutaneous anaphylaxis of the rat (PCR)
Passive cutaneous anaphylaxis in the rat was carried out with male Wistar rats weighing 180-200 g which were sensitized by intradermal injection into four sites on the shaved back to produce a passive cutaneous reaction mediated by Ig G antibodies (a 4 hour sensitization following injection of antiserum heated at 56° C. for one hour). Antigen challenge was carried out in the same way; 1 mg of ovalbumen together with 0.5 ml of 1% Evans blue dye solution were injected intravenously and 30 minutes later, the animals were killed and the severity and area of each blue spot was scored when viewed from the reverse side of the skin.

| Structure (SMILES) | inhibition in vivo at 0.1 mg/kg [%] | inhibition in vivo at 1 mg/kg [%] |
| --- | --- | --- |
| CCOC(=O)c1cn2c(n1)CN(C(=O)OCC)c1ccccc1-2 [Example 3, Diethyl 4,5-dihydroimidazo[1,2-a]quinoxaline-2,5-dicarboxylate] | 26.3 | 67.5 |
| CCOC(=O)c1cn2c(n1)CN(C(=O)Nc1ccccc1)c1ccccc1-2 [Example 4, Ethyl 4,5-dihydro-5-(phenylcarboxamido)imidazo[1,2-a]quinoxaline-2-carboxylate] |  | 5.2 |
| CCOC(=O)c1cn2c(n1)CN(C(=O)NCCN1CCOCC1)c1ccccc1-2 [Example 5B, Ethyl 4,5-dihydro-5-(morpholinoethylcarboxamido)imidazo[1,2-a]quinoxaline-2-carboxylate] |  | 33.8 |
| COC(=O)N1Cc2nc(C(=O)O)cn2-c2ccccc21 [Example 6, 4,5-dihydro-5-(methoxycarbonyl)imidazo[1,2-a]quinoxaline-2-carboxylic acid] | 19 | 61.1 |
| CCOC(=O)c1cn2c(n1)CN(C(C)=O)c1ccccc1-2 [Example 7, Ethyl 5-acetyl-4,5-dihydroimidazo[1,2-a]quinoxaline-2-carboxylate] | 32.5 | 49.4 |
| CCOC(=O)c1cn2c(n1)CN(C(=O)OCc1ccccc1)c1ccccc1-2 [Example 8, Ethyl 4,5-dihydro-5-(benzyloxycarbonyl)imidazo[1,2-a]quinoxaline-2-carboxylate] |  | 14.3 |
| CCOC(=O)c1cn2c(n1)CN(C(=O)OC)c1ccccc1-2 [Example 9, Ethyl 4,5-dihydro-5-(methoxycarbonyl)imidazo[1,2-a]quinoxaline-2-carboxylate] | 18.8 | 75.6 |
| CCCOC(=O)N1Cc2nc(C(=O)OCC)cn2-c2ccccc21 [Example 11, Ethyl 4,5-dihydro-5-(propyloxycarbonyl)imidazo[1,2-a]quinoxaline-2-carboxylate] |  | 44 |
| CCCCOC(=O)N1Cc2nc(C(=O)OCC)cn2-c2ccccc21 [Example 12, Ethyl 4,5-dihydro-5-(butyloxycarbonyl)imidazo[1,2-a]quinoxaline-2-carboxylate] |  | 26.2 |
| CCOC(=O)c1cn2c(n1)CN(C(=O)NCCN(CC)CC)c1ccccc1-2 [Example 14, Ethyl 4,5-dihydro-5-(diethylaminoethylcarboxamido)imidazo[1,2-a]quinoxaline-2-carboxylate] | 16.8 | 42.8 |
